Measured values taken from PMC10959927, “Platinum iodido drugs show potential anti-tumor activity, affecting cancer cell metabolism and inducing ROS and senescence in gastrointestinal cancer cells” (Communications Biology, 2024).
Values joined by “and” are separate entries in the source; they are usually repeats but may differ in a detail not shown here. Identical values can stand only once.

Experiments:
C57Bl6 mice [1] = assay: In vivo safety: weight and Irwin's test after tail vein injection; parameters: species or system mouse; conditions: 1.4 mg/kg tail vein injection, early acute time points
PANC1 cells [2] = assay: Lactate production assay; format: cell-based, human; conditions: replicates
Method: (§1) Lactate production assay. […] Proteins were removed from 50 μL of the medium by adding 100 μL of 8% Percloric Acid and 40% EtOH at 4 °C, and centrifuging at 2 × 10^4 g for 10 min at 4 °C. The supernatants were then frozen until the lactate in 15 μL of each sample, or lactate standard, was measured mixed with 150 μl of assay buffer (0.5 M glycine [pH 9.5], 0.2 M Hydrazine, 3.4 mM EDTA), 100 μl of H20, 5 μL of 1100 U/mL LDH (Roche) and 30 μL of 15 mM NAD + . NADH production was evaluated by measuring absorbance at 340 nm in a multiplate reader (Synergy HT, Biotek) and it was proportional to the lactic acid concentration in the sample after a 2 h incubation. The lactate concentration was normalized to the total amount of protein measured with the Micro BCA Protein Assay Kit (Thermo Scientific). Assays were performed in triplicate in three independent experiments.

AGS cells [3] = assay: Lactate production assay; format: cell-based, human; conditions: replicates
Method: as §1

MKN45 cells [4] = assay: Lactate production assay; format: cell-based, human; conditions: replicates
Method: as §1

PANC1 cells [5] = assay: ATP determination assay (bioluminescence); format: cell-based, human; conditions: replicates
Method: (§2) ATP determination assay. […] The analysis was performed using the ATP Bioluminescense Assay Kit CLS II (Cat. no. 11699695001, Roche) according to the manufacturer’s instructions. […] Data were normalized to total protein using the BCA protein assay kit (Thermo Scientific).

AGS cells [6] = assay: ATP determination assay (bioluminescence); format: cell-based, human; conditions: replicates
Method: as §2

MKN45 cells [7] = assay: ATP determination assay (bioluminescence); format: cell-based, human; conditions: replicates
Method: as §2

AGS cells [8] = assay: Seahorse XF OCR, ECAR and energy map; format: cell-based, human; conditions: AGS, IC50 24 h
Method: (§3) Oxygen Consumption Rate (OCR), Extra Cellular Acidification Rate (ECAR) and Energy map measurements. Cells were plated in XF HS Miniplates (Seahorse Bioscience) at a cellular density of 1 × 10^4 cells/well and incubated overnight. […] After an OCR baseline measurement, the minimum oxygen consumption was determined by adding 1.5 µM oligomycin (O) and the maximal respiration rate was assessed by adding 1 µM carbonyl cyanide p-trifluoro methoxyphenylhydrazone (FCCP, F). At the end of the experiment, the non-mitochondrial oxygen consumption was evaluated by adding both 0.5 µM rotenone (R) and antimycin (A). Experiments were run in a XF HS Mini analyzer (Seahorse Agilent), and raw data were normalized to total protein using a BCA protein assay kit (Cat. no. 23225, Thermo Scientific).

PANC1 cells [9] = assay: Seahorse XF OCR, ECAR and energy map; format: cell-based, human; parameters: Basal resp. / Maximal resp. / SRC: unit not given here; conditions: PANC1, IC50 24 h
Method: as §3

MKN45 cells [10] = assay: Seahorse XF OCR, ECAR and energy map; format: cell-based, human; parameters: Basal resp. / Maximal resp. / SRC: unit not given here; conditions: MKN45, IC50 24 h
Method: as §3

C57Bl6 mice [11] = assay: Indirect calorimetry analyses (PhenoMaster); format: in vivo, mouse
Method: Indirect calorimetry analyses were carried out using a 16-chamber TSE PhenoMaster monitoring system (TSE Systems GmbH, Bad Homburg, Germany). Full access to food and water was continuously available, and intake was monitored using built-in devices located within each cage. Calorimetry measurements were carried out during a period of 72 h, according to animal weight, to exclude changes in body weight that would contribute to differences in energy expenditure measurements. […] Mice were introduced into individual chambers and were on a 12 h light-dark cycle (lights on at 07:00am) during the course of the experiment, with a maintained room temperature of 22 ± 2°C. Oxygen consumption and CO2 release was measured. From these values, respiratory exchange ratio (RER) was determined as VCO2/VO2 and energy expenditure (EE) was calculated as = ([…] + 1.232 x RER) x VO2. Locomotor activity was reported as the average light beam breaks (XT + YT) per min. XT and YT (T = total) were calculated from the sum of the ambulatory and fine movements. Water and food consumption (DRINK and FOOD, respectively, Fig. S8) were also monitored and recorded.

`CC(C)[NH][Pt@SP3]([I])([I])[NH]C(C)C` [I5, trans-[PtI2(isopropylamine)2]] was tested, and the “adverse effects on weight and neurological perturbations (Irwin's test)” value (C57Bl6 mice [1]) was “no adverse effects”, the lactate assay (PANC1 cells [2]) was 5.32 Lactate mM/mg prot and 7.44 Lactate mM/mg prot and 7.29 Lactate mM/mg prot and 4.009 Lactate mM/mg prot and 7.435 Lactate mM/mg prot and 6.316 Lactate mM/mg prot and 4.98 Lactate mM/mg prot and 4.88 Lactate mM/mg prot and 4.97 Lactate mM/mg prot and the lactate assay (AGS cells [3]) was 1.16 Lactate mM/mg prot and 3.26 Lactate mM/mg prot and 1.86 Lactate mM/mg prot and 0.01 Lactate mM/mg prot and 0.05431 Lactate mM/mg prot and 0.02716 Lactate mM/mg prot and 0.02 Lactate mM/mg prot and 0.03 Lactate mM/mg prot. The lactate assay (MKN45 cells [4]) was 3.26 Lactate mM/mg prot and 4 Lactate mM/mg prot and 1.31 Lactate mM/mg prot and 1.423 Lactate mM/mg prot and 0.8373 Lactate mM/mg prot and 1.863 Lactate mM/mg prot and 1.55 Lactate mM/mg prot and 1.53 Lactate mM/mg prot and 1.48 Lactate mM/mg prot, the ATP assay (PANC1 cells [5]) was 7640.3 nmoles ATP/mg prot and 496.05 nmoles ATP/mg prot and 2595.09 nmoles ATP/mg prot and 2106 nmoles ATP/mg prot and 8408.46 nmoles ATP/mg prot and 9059.04 nmoles ATP/mg prot and 9127 nmoles ATP/mg prot and 10292.6 nmoles ATP/mg prot and 9600 nmoles ATP/mg prot and the ATP assay (AGS cells [6]) was 8571 nmoles ATP/mg prot and 150.2 nmoles ATP/mg prot and 0.01 nmoles ATP/mg prot and 0.05 nmoles ATP/mg prot and 4895.31 nmoles ATP/mg prot and 5882.71 nmoles ATP/mg prot and 4424 nmoles ATP/mg prot and 7769.74 nmoles ATP/mg prot and 709.57 nmoles ATP/mg prot. The ATP assay (MKN45 cells [7]) was 11672 nmoles ATP/mg prot and 496.26 nmoles ATP/mg prot and 8257.16 nmoles ATP/mg prot and 8443 nmoles ATP/mg prot and 9557.85 nmoles ATP/mg prot and 7684.95 nmoles ATP/mg prot and 11572 nmoles ATP/mg prot and 11682.5 nmoles ATP/mg prot and 9034.25 nmoles ATP/mg prot, the “effect on ECAR” value (AGS cells [8]) was “strong effect” and the OCR (AGS cells [8]; time 21.13 min (I5) / 21.08 min (I6)) was 33.7993 pmoles/min/µg protein and 17.1923 pmoles/min/µg protein and 31.197 pmoles/min/µg protein. The OCR (AGS cells [8]; time 60.15 min (I5) / 60.16 min (I6)) was 22.0275 pmoles/min/µg protein and 13.2859 pmoles/min/µg protein and 22.5877 pmoles/min/µg protein, the OCR (AGS cells [8]; time 66.63 min (I5) / 66.65 min (I6)) was 21.2372 pmoles/min/µg protein and 12.4063 pmoles/min/µg protein and 20.3044 pmoles/min/µg protein and the OCR (AGS cells [8]; time 73.12 min (I5) / 73.14 min (I6)) was 19.5577 pmoles/min/µg protein and 11.425 pmoles/min/µg protein and 19.4877 pmoles/min/µg protein. The Basal resp. (PANC1 cells [9]) was 4.37 and 2.91 and 2.68, the “effect on ECAR” value (PANC1 cells [9]) was “strong effect” and the OCR (PANC1 cells [9]; time 14.5 min (I5) / 14.5 min (I6)) was 10.9576 pmoles/min/µg protein and 5.698 pmoles/min/µg protein and 5.804 pmoles/min/µg protein. For the same molecule, the OCR (PANC1 cells [9]; time 21.08 min (I5) / 21.07 min (I6)) was 8.99 pmoles/min/µg protein and 4.967 pmoles/min/µg protein and 6.036 pmoles/min/µg protein, the OCR (PANC1 cells [9]; time 60.22 min (I5) / 60.14 min (I6)) was 6.526 pmoles/min/µg protein and 3.324 pmoles/min/µg protein and 3.875 pmoles/min/µg protein and the Basal resp. (MKN45 cells [10]) was 41.12 and 25.16 and 29.99. For the same molecule, the Maximal resp. (MKN45 cells [10]) was 70.47 and 41.2 and 48.53, the SRC (MKN45 cells [10]) was 29.35 and 16.04 and 18.54 and the “effect on ECAR” value (MKN45 cells [10]) was “strong effect”. The OCR (MKN45 cells [10]; time 1.53 min (I5) / 1.53 min (I6)) was 87.0221 pmoles/min/µg protein and 65.8202 pmoles/min/µg protein and 67.2404 pmoles/min/µg protein, the OCR (MKN45 cells [10]; time 8.04 min (I5) / 8.03 min (I6)) was 81.395 pmoles/min/µg protein and 60.0787 pmoles/min/µg protein and 61.987 pmoles/min/µg protein and the OCR (MKN45 cells [10]; time 14.51 min (I5) / 14.5 min (I6)) was 68.3352 pmoles/min/µg protein and 45.5888 pmoles/min/µg protein and 48.6636 pmoles/min/µg protein. The OCR (MKN45 cells [10]; time 40.66 min (I5) / 40.62 min (I6)) was 96.0748 pmoles/min/µg protein and 62.8442 pmoles/min/µg protein and 67.0243 pmoles/min/µg protein, the OCR (MKN45 cells [10]; time 53.68 min (I5) / 53.58 min (I6)) was 97.9086 pmoles/min/µg protein and 60.6467 pmoles/min/µg protein and 66.2231 pmoles/min/µg protein and the OCR (MKN45 cells [10]; time 60.27 min (I5) / 60.14 min (I6)) was 32.7644 pmoles/min/µg protein and 24.8353 pmoles/min/µg protein and 23.7602 pmoles/min/µg protein. For the same molecule, the OCR (MKN45 cells [10]; time 66.75 min (I5) / 66.62 min (I6)) was 29.7633 pmoles/min/µg protein and 21.9547 pmoles/min/µg protein and 20.2025 pmoles/min/µg protein, the OCR (MKN45 cells [10]; time 73.23 min (I5) / 73.1 min (I6)) was 27.2124 pmoles/min/µg protein and 20.4304 pmoles/min/µg protein and 18.6726 pmoles/min/µg protein and the “RER, EE, locomotor activity, food and water intake vs untreated” value (C57Bl6 mice [11]; C57Bl6 mice, 1.4 mg/kg i.v.) was “no differences were observed”. The DRINK (C57Bl6 mice [11]; Fig. S8B left graph, individual mice) was 4.49 mL and 10.13 mL and 7.81 mL and 7.64 mL and 8.16 mL.
